Patent publication US20160223547A1, “MARKER FOR PREDICTING METASTASIS OF BREAST CANCER” (priority 2013, published 2016)

Columns and labels:
[1] = system: BRV5CA1 cells (clones 424-2 and 424-8, silenced GRP94; Pool, non-silenced GRP94); assay: MTT cytotoxicity assay of taxotere on brain metastatic breast cancer cells with silenced or non-silenced GRP94; format: cell-based; settings: clones 424-2 and 424-8 (silenced GRP94) vs pool, 1-10 ng/ml, 72 h
Protocol: To […], three sublines were used: Clones: 424-2 and 424-8 (silenced GRP94 [shGRP94]) and a Pool (non-silenced GRP94), from the metastatic variant BRV5Ca1.
For the cytotoxicity assay, each cell type was seeded in triplicate in a 96-well plate (Costar® 3596; Corning Incorporated) at a density of 6000 cells/well in 50 μL of complete medium (DMEM/F12 GIBCO® with serum). Twenty-four hours after seeding the cells, they were treated with taxotere (docetaxel >99%; LC Laboratories (www.LCLabs.com); Stock 200 mg/ml), at different concentrations in triplicate: 10-5-2.5-1 and 0 ng/ml, in a volume of 50 μL/well. Seventy-two hours after the start of the treatment, a cell viability assay MTT was carried out in which survival expressed as a percentage (%) was analyzed (FIG. 2). […]
After this time, the medium was removed from the wells and 50 μL of MTT [3-(4,5-dimethylthiazol-2-yl)-2,5-diphenyltetrazolium bromide; Sigma-Aldrich) were added per well, at a concentration of 5 mg MTT/ml of medium without serum. […] It was left to stir for 10-15 minutes (in the dark) and was then analyzed in the microplate spectrophotometer (PowerWave™ XS; BioTek) at a wavelength of 540 nm.
Absorbance values (OD) were obtained in triplicate for each of the treatment concentrations established. The calculated mean was expressed in reference to the control thereof (0 ng/ml), considered as the maximum survival value (100%).

[2] = system: xenotransplant of breast cancer metastasizing to the brain; assay: Effect of taxotere on growth of intramammary xenografts; format: in vivo; settings: Athymic Nude-Foxn1nu mice, 15 mg/kg/day every 4 days for two weeks, vs carrier control, p=0.003
Protocol: A xenotransplant of breast cancer metastasizing to the brain provided by Dr. Eva Gonzalez was used to induce breast tumors in immunosuppressed Athymic Nude-Foxnlnu mice weighing 22-28 grams acquired from Charles-River Laboratories (Wilmington, Mass.) and to establish groups that are treated or not treated with taxotere following a previously established standard protocol of 15 mg/kg/day every 4 days for two weeks (Bin Gu et al., Carcinogenesis, 2004). The 2 mm^3 tumor fragment was implanted in the inguinal breast of female mice and 10 days were waited out for the graft to progress. After evaluating the volume of the tumor, treatment with taxotere was started, considering in each case a control group which was treated with the drug carrier.

FN14 = assay: Immunohistochemistry of FN14 expression in triple-negative breast carcinoma grafts treated with lenalidomide; format: in vivo; settings: triple-negative breast carcinoma graft in immunosuppressed mice, vs carrier control, anti-FN14 immunohistochemistry
From the text: Experimental tumors induced in the breast of immunosuppressed mice by implanting small biopsy fragments (2×2 mm) from patients with triple-negative breast carcinoma. An example of one of these grafts treated with lenalidomide (LND) with respect to the same graft treated with the carrier (control) is shown.
For expression studies, the immunohistochemistry technique with specific anti-FN14 antibodies (sc-27143, C-13, Santa Cruz Biotechnology) at a concentration of 1/3000 was used. Kidney and heart tissues were used as control tissues to view the expression in the cell membrane. The antigens were exposed by heating the preparations in a pressure cooker for 7 minutes in the suitable citrate buffer (Sanz et al., Am J Pathol, 179(2):564-579, 2011).
The primary antibody was diluted in the Dako diluent buffer (Dako, Glostrup, Denmark; Carpinteria, Calif.): Tris buffer, pH 7.2, 15 mmol/1 of NaN3. The LSAB peroxidase system (Dako), including biotinylated secondary antibody, followed by conjugated streptavidin, was used along with the ultraView detection kit (Ventana Benchmark XT, Roche, Tucson, Ariz.). The tumors were classified in three categories considering staining intensity: negative, weakly positive and strongly positive. Only those which are strongly positive in more than 30% of the tumor cells were considered with the overexpressed protein.

[3] = system: brain metastases of breast cancer induced by BRV5CA1 cells; assay: Therapeutic effect on brain metastases induced by BRV5CA1 cells, luciferase emission monitored in vivo; settings: female Athymic Nude-Foxn1nu mice, 50 mg/kg/d on consecutive days, after a week of treatment
Protocol: The therapeutic effect of lenalidomide was analyzed by treating the brain metastases of breast cancer induced by injecting BRV5CA1 cells labeled with the luciferase gene into female Athymic Nude-Foxnlnu mice (Martinez-Aranda A., Int. J. Mol. Sci. 2013, 14(4), 8306-8327). The treatment groups N=8 (lenalidomide 50 mg/kg/d on consecutive days) and the control group, in which carrier was injected, were established. The start of the treatment was established on day 14 after the graft and treatment was maintained for 15 days until the end of the experiment. The treatment was started on day 13 after induction and progression of the growth of metastasis was monitored in vivo by quantifying luciferase emission (photons per second) (FIG. 7). After a week of treatment, the difference in growth of the metastasis between the control group and the treated group was significant.

SMILES | survival of cells after treatment (percentage of survival with respect to the control) [1] | tumor growth (normalized volume divided by the initial volume) [2] | expression of FN14 in tumor graft (FN14) | difference in growth of the metastasis between control group and treated group (luciferase emission, photons per second) [3]
CC(=O)O[C@H]1C(=O)[C@@]2(C)[C@H]([C@H](OC(=O)c3ccccc3)[C@]3(O)C[C@H](OC(=O)[C@H](O)[C@@H](NC(=O)c4ccccc4)c4ccccc4)C(C)=C1C3(C)C)[C@]1(OC(C)=O)CO[C@@H]1C[C@@H]2O [taxol, 11-methano-5H-cyclodeca[3,4]benz[1,2-b]oxete benzenepropanoic acid deriv.] | lower survival |  |  | 
CC(=O)O[C@@]12CO[C@@H]1C[C@H](O)[C@@]1(C)C(=O)[C@H](O)C3=C(C)[C@@H](OC(=O)[C@H](O)[C@@H](NC(=O)OC(C)(C)C)c4ccccc4)C[C@@](O)([C@@H](OC(=O)c4ccccc4)[C@H]21)C3(C)C [taxotere, N-debenzoyl-N-tert-butoxycarbonyl-10-deacetyl taxol] | significantly reduces the survival | tendency to grow less than that of the control |  | 
Nc1cccc2c1CN(C1CCC(=O)NC1=O)C2=O (centres unmarked) [lenalidomide] |  |  | inhibition of the expression of FN14 | significant
